Like-named read-outs stand apart in the source and are kept apart here.
What was measured:
eczema dermatitis = experiment: TARGRETIN as substitute for tacrolimus and steroids in eczema dermatitis; details: in vivo
[1] = system: non-small-cell lung carcinoma; details: oral, in combination with cisplatin and vinorelbin, previously untreated patients; cited from earlier work
[2] = Tolerability of TARGRETIN dosing regimes in patients; assay type: in vivo, human
Source text: Further, by “effective amount” as used herein, it is meant a concentration of TARGRETIN administered by a selected route and dosing schedule which lessens or decreases severity of a symptom of the disease state or condition from which the patient is suffering and/or a concentration of TARGRETIN which increases neutrophil count in a patient and/or a concentration of TARGRETIN which increases the efficacy of a co-administered cancer chemotherapeutic agent. Such amounts can be routinely determined by those skilled in the art based upon the teachings herein as well as what is known in the art about TARGRETIN with respect to treatment of cutaneous T-cell lymphoma. […] Further, the Food and Drug Administration's approved dose for TARGRETIN in the treatment of cutaneous T-cell lymphoma is 300 mg/M^2. It is expected that similar dosages will also be effective in treating autoimmune diseases or disorders, and in particular graft versus host disease, as well as organ transplant rejection.

melanoma = details: single daily oral dose of 450 mg/m^2 in capsule form; cited from earlier work
[3] = system: NMU-induced mammary carcinomas; details: rat; cited from earlier work
[4] = system: squamous cell carcinoma of the head and neck; details: cited from earlier work
[5] = system: refractory acute lymphocytic leukemia; experiment: TARGRETIN in combination with low dose chemotherapy in two patients with refractory acute lymphocytic leukemia; assay type: in vivo, human; details: both patients
Method: In these experiments, two patients with refractory acute lymphocytic leukemia were treated with TARGRETIN in combination with low dose chemotherapy.

[6] = system: T-cell non-Hodgkin's lymphoma; experiment: TARGRETIN in patients with T-cell non-Hodgkin's lymphomas other than cutaneous T-cell lymphoma; assay type: in vivo, human
Method: Specifically, TARGRETIN was administered to a patient suffering from a post-transplant lymphoproliferative disorder type lymphoma. This is a T-cell non-Hodgkin's lymphoma related to organ transplantation. This patient had horrific lymphoma with involvement of their cerebral spinal fluid.
TARGRETIN was administered to a second patient suffering from a rare type of T-cell lymphoma, an angiocentric T-cell lymphoma.

[7] = system: acute myeloid leukemia (AML); assay type: in vivo
Method: In these studies, five patients with relapsed refractory AML were treated with TARGRETIN monotherapy.
The first patient had failed induction chemotherapy, had fungal pneumonia, and active leukemia with no immune system. This patient was sent home under hospice care, but given TARGRETIN to take orally in a pill formulation. Within a few months, this patient no longer needed hospice care and had returned to work. It is believed that upon administration of TARGRETIN, this patient was able to maintain an immune system, thereby clearing the fungal pneumonia and preventing further fatal infections.
The second patient was a heart transplant patient who developed AML and failed induction chemotherapy as well as a second line of chemotherapy. With active leukemia and no immune system they were placed on TARGRETIN. […] Upon escalation of the TARGRETIN dose it was observed that their neutrophil count continued to increase and the leukemia count dropped. This increase in neutrophil count and decrease in leukemia count continued with each dose escalation until the patient was taking six TARGRETIN capsules a day. […] This syndrome is a cell differentiation disorder wherein leukemia cells differentiate into normal immune cells. While this syndrome is good in that it boosts the immune system while decreasing the leukemia count, cytokines released by the differentiating neutrophils can cause a pulmonary syndrome. At six TARGRETIN capsules a day the second patient developed a syndrome exactly like that observed in ATRA administration. TARGRETIN treatment was stopped and within one week the neutrophil count dropped from 1500 to 200 and the pulmonary syndrome resolved. TARGRETIN treatment was then restarted at three capsules daily and the neutrophil count returned to 600. This patient continued treatment for an additional 9 months at which time they developed an infection and died. At the time of death their leukemia was still well under control.
The third patient had failed induction therapy and was suffering from active AML with disseminated intravascular coagulation (DIC), a blood clotting disorder relating to active leukemia. This patient was completely bed-ridden. It was believed that they could not tolerate further chemotherapy and was placed on TARGRETIN. […] They also developed a small number of immune cells and was able to return to their home where their physical condition continued to improve. This patient lived for approximately 4.5 months before they developed progressive leukemia. At that point they declined further therapy and expired.
The fourth patient had raging AML. This patient was placed on TARGRETIN but expired within 3 days of starting treatment. It is believed that the TARGRETIN treatment may have been started too late in the course of this patient's disease to provide an effect.
The fifth patient treated with TARGRETIN was suffering from a relapse after already having undergone an allogeneic bone marrow transplant, one of the most aggressive treatments possible for AML. […] This patient ultimately expired, however, from complications relating to their bone marrow transplant.

C=C(c1ccc(C(=O)O)cc1)c1cc2c(cc1C)C(C)(C)CCC2(C)C [TARGRETIN]
efficacy in eczema dermatitis (eczema dermatitis): effective substitute for tacrolimus and steroids | response rate and survival [1]: acceptable phase II response rates with better-than expected survival | tolerability ([2]; 100 to 150 mg per meter square of body surface area, ongoing clinical trials): well-tolerated | tolerability ([2]; oral 2-3 capsules a day or 150 to 225 mg a day): without unwanted side effects | efficacy against melanoma (melanoma): ineffective | efficacy as chemopreventative and chemotherapeutic agent [3]: efficacious | effect on proliferation [4]: decrease | efficacy of combination treatment [5]: significantly greater than expected | duration of remission ([6]; patient with angiocentric T-cell lymphoma, prior bone marrow transplant failed): in remission for three months | duration of remission ([6]; patient with post-transplant lymphoproliferative disorder type lymphoma, prior chemotherapy failed): in remission for four months | immune response upon initiation of treatment ([7]; fifth patient, relapse after allogeneic bone marrow transplant): mounted an immune system response | duration leukemia kept under control ([7]; first patient, oral pill formulation): kept under control for nine months | time to death after starting treatment ([7]; fourth patient, raging AML): ≤ 3 days | adverse event ([7]; human, in vivo): developed a pulmonary syndrome very similar to that seen in patients taking trans retinoic acid (ATRA) | additional duration of treatment, leukemia still well under control at death ([7]; second patient, after restart at three capsules daily): 9 months | neutrophil count ([7]; second patient, at six capsules a day, before treatment was stopped): 1500 | neutrophil count ([7]; second patient, treatment restarted at three capsules daily): 600 | neutrophil count ([7]; second patient, within one week after TARGRETIN treatment was stopped): 200 | change of neutrophil count and leukemia count after start of treatment ([7]; second patient, within one week of treatment): neutrophil count and/or immune system was rising and their leukemia count was dropping | patients exhibiting a positive response (increase in neutrophil count and/or decrease in leukemia count) ([7]; terminal AML, TARGRETIN monotherapy): 4 out of 5 | resolution of disseminated intravascular coagulation (DIC) ([7]; third patient): resolved within four days | time lived before progressive leukemia ([7]; third patient): approximately 4.5 months
